Measurements taken from ChEMBL document CHEMBL5137044, “Expansion of the S-CN-DABO scaffold to exploit the impact on inhibitory activities against the non-nucleoside HIV-1 reverse transcriptase” (Eur J Med Chem, 2022).
pEC50, pIC50: −log10 of the molar value.

Columns and labels:
[1] = Fold resistance, ratio of EC50 for antiviral activity against drug-resistant HIV-1 E138K mutant infected in human MT4 cells to EC50 for antiviral activity against […] HIV-1 infected in human MT4 cells; type: functional
[2] = Fold resistance, ratio of EC50 for antiviral activity against drug-resistant HIV-1 Y181C mutant infected in human MT4 cells to EC50 for antiviral activity against […] HIV-1 infected in human MT4 cells; type: functional
[3] = Acute toxicity in healthy mouse assessed as heart damage at 1 g/Kg,IG monitored for 2 weeks by HE staining based assay; type: tissue-based; settings: in vivo, po, 1000 mg/kg, 336 h
[4] = Acute toxicity in mouse assessed as body weight change at 1 g/Kg,IG monitored for 2 weeks; settings: in vivo, po, 1000 mg/kg, 336 h
[5] = Apparent volume of distribution in Sprague-Dawley rat at 10 mg/kg,po measured upto 24 hrs by LC-MS/MS analysis; type: ADME, organism-based; settings: in vivo
[6] = Acute toxicity in mouse assessed as mouse death at 1 g/Kg,IG monitored for 2 weeks; settings: in vivo, po, 1000 mg/kg, 336 h
[7] = Oral bioavailability in Sprague-Dawley rat at 10 mg/kg measured upto 24 hrs by LC-MS/MS analysis; type: ADME, organism-based; settings: in vivo
[8] = Acute toxicity in healthy mouse assessed as brain damage at 1 g/Kg,IG monitored for 2 weeks by HE staining based assay; type: tissue-based; settings: in vivo, po, 1000 mg/kg, 336 h
[9] = Clearance in Sprague-Dawley rat at 10 mg/kg,po measured upto 24 hrs by LC-MS/MS analysis; type: ADME, organism-based; settings: in vivo
[10] = Clearance in Sprague-Dawley rat at 1 mg/kg,iv measured upto 24 hrs by LC-MS/MS analysis; type: ADME, organism-based; settings: in vivo
[11] = Acute toxicity in mouse assessed as behavioral abnormalities at 1 g/Kg,IG monitored for 2 weeks; settings: in vivo, po, 1000 mg/kg, 336 h
[12] = system: Human immunodeficiency virus 1; assay: Antiviral activity against drug-resistant HIV-1 Y188L mutant infected in human MT4 cells assessed as reduction in virus-induced cytopathic effect incubated for 5 days by MTT assay; type: functional, organism-based; settings: Human immunodeficiency virus 1, Y188L mutant, MT4, 120 h
[13] = AUC (0 to t) in Sprague-Dawley rat at 1 mg/kg,iv measured upto 24 hrs by LC-MS/MS analysis; type: ADME, organism-based; parameters: dose 1 mg/kg, time < 24 hrs, route iv; settings: in vivo
[14] = C0 in Sprague-Dawley rat at 1 mg/kg,iv measured upto 24 hrs by LC-MS/MS analysis; type: ADME, organism-based; settings: in vivo
[15] = Tmax in Sprague-Dawley rat at 10 mg/kg,po measured upto 24 hrs by LC-MS/MS analysis; type: ADME, organism-based; settings: in vivo
[16] = AUC (0 to t) in Sprague-Dawley rat at 10 mg/kg,po measured upto 24 hrs by LC-MS/MS analysis; type: ADME, organism-based; parameters: dose 10 mg/kg, time < 24 hrs, route po; settings: in vivo
Cytochrome P450 1A2 = target: T1, Cytochrome P450 1A2 (Homo sapiens, UniProt P05177); assay: Inhibition of CYP1A2 in human liver microsomes using phenacetin as substrate incubated for 15 to 40 mins in presence of NADPH; type: ADME, Microsome
T1 sequence (P05177 whole entry): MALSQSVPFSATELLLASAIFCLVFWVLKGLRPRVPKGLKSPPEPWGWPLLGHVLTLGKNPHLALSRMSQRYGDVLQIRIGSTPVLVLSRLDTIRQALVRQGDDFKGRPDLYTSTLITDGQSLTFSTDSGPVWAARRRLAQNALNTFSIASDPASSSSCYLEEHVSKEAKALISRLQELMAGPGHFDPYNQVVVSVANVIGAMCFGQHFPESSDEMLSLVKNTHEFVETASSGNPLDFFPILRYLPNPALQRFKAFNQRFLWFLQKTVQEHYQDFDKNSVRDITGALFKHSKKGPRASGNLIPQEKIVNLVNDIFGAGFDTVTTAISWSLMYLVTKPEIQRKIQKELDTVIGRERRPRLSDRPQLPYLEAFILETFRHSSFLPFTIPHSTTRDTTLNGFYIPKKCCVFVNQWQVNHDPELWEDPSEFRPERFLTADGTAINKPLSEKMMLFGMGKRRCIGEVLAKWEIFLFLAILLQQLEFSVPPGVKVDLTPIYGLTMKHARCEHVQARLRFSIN

[17] = system: Human immunodeficiency virus 1; assay: Antiviral activity against drug-resistant HIV-1 E138K mutant infected in human MT4 cells assessed as reduction in virus-induced cytopathic effect incubated for 5 days by MTT assay; type: functional, organism-based; settings: Human immunodeficiency virus 1, E138K mutant, MT4, 120 h
[18] = Selectivity index, ratio of CC50 for human MT4 cells to EC50 for antiviral activity against NNRTI resistant HIV-1 infected in human MT4 cells; type: toxicity, cell-based; settings: read-out: Ratio CC50/EC50
[19] = system: Human immunodeficiency virus 1; assay: Antiviral activity against drug-resistant HIV-1 K103 N mutant infected in human MT4 cells assessed as reduction in virus-induced cytopathic effect incubated for 5 days by MTT assay; type: functional, organism-based; settings: Human immunodeficiency virus 1, K103 N mutant, MT4, 120 h
[20] = AUC (0 to infinity) in Sprague-Dawley rat at 1 mg/kg,iv measured upto 24 hrs by LC-MS/MS analysis; type: ADME, organism-based; parameters: dose 1 mg/kg, time < 24 hrs, route iv; settings: in vivo
[21] = Acute toxicity in healthy mouse assessed as lung damage at 1 g/Kg,IG monitored for 2 weeks by HE staining based assay; type: tissue-based; settings: in vivo, po, 1000 mg/kg, 336 h
[22] = Fold resistance, ratio of EC50 for antiviral activity against drug-resistant HIV-1 K103 N mutant infected in human MT4 cells to EC50 for antiviral activity against […] HIV-1 infected in human MT4 cells; type: functional
[23] = MRT(0 to t) in Sprague-Dawley rat at 1 mg/kg,iv measured upto 24 hrs by LC-MS/MS analysis; type: ADME, organism-based; settings: in vivo
[24] = MRT (0 to infinity) in Sprague-Dawley rat at 10 mg/kg,po measured upto 24 hrs by LC-MS/MS analysis; type: ADME, organism-based; settings: in vivo
Cytochrome P450 3A4 = Cytochrome P450 3A4 (Homo sapiens, UniProt P08684); assay: Inhibition of CYP3A4M in human liver microsomes using midazolam as substrate incubated for 15 to 40 mins in presence of NADPH; type: ADME, Microsome
Cytochrome P450 3A4, sequence (P08684 whole entry): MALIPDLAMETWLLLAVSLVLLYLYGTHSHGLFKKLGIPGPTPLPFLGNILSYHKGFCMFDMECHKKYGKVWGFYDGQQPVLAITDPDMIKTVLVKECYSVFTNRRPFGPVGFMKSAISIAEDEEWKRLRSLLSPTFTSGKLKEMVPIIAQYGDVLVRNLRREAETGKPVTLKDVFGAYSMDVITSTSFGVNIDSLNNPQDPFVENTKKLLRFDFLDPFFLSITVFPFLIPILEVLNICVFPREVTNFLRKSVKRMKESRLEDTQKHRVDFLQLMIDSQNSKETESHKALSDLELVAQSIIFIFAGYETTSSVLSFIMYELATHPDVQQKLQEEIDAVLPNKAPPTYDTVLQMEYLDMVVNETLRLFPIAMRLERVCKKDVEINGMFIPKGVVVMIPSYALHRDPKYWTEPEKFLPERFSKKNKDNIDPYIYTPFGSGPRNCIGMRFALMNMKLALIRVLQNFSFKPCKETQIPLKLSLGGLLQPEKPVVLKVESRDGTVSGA

[25] = system: Human immunodeficiency virus 1; assay: Antiviral activity against drug-resistant HIV-1 L100I mutant infected in human MT4 cells assessed as reduction in virus-induced cytopathic effect incubated for 5 days by MTT assay; type: functional, organism-based; settings: Human immunodeficiency virus 1, L100I mutant, MT4, 120 h
[26] = Cmax in Sprague-Dawley rat at 10 mg/kg,po measured upto 24 hrs by LC-MS/MS analysis; type: ADME, organism-based; parameters: dose 10 mg/kg, time < 24 hrs, route po; settings: in vivo
[27] = Cmax in Sprague-Dawley rat at 1 mg/kg,iv measured upto 24 hrs by LC-MS/MS analysis; type: ADME, organism-based; parameters: dose 1 mg/kg, time < 24 hrs, route iv; settings: in vivo
[28] = Half life in Sprague-Dawley rat at 1 mg/kg,iv measured upto 24 hrs by LC-MS/MS analysis; type: ADME, organism-based; settings: in vivo
[29] = Fold resistance, ratio of EC50 for antiviral activity against drug-resistant HIV-1 Y188L mutant infected in human MT4 cells to EC50 for antiviral activity against […] HIV-1 infected in human MT4 cells; type: functional
hERG = hERG (Homo sapiens, UniProt Q12809); assay: Inhibition of human ERG expressed in CHO cells at 40 uM at -80 mV holding potential by automated patch clamp method relative to control; type: toxicity, cell-based; settings: CHO cells that express hERG
hERG, sequence (Q12809 whole entry): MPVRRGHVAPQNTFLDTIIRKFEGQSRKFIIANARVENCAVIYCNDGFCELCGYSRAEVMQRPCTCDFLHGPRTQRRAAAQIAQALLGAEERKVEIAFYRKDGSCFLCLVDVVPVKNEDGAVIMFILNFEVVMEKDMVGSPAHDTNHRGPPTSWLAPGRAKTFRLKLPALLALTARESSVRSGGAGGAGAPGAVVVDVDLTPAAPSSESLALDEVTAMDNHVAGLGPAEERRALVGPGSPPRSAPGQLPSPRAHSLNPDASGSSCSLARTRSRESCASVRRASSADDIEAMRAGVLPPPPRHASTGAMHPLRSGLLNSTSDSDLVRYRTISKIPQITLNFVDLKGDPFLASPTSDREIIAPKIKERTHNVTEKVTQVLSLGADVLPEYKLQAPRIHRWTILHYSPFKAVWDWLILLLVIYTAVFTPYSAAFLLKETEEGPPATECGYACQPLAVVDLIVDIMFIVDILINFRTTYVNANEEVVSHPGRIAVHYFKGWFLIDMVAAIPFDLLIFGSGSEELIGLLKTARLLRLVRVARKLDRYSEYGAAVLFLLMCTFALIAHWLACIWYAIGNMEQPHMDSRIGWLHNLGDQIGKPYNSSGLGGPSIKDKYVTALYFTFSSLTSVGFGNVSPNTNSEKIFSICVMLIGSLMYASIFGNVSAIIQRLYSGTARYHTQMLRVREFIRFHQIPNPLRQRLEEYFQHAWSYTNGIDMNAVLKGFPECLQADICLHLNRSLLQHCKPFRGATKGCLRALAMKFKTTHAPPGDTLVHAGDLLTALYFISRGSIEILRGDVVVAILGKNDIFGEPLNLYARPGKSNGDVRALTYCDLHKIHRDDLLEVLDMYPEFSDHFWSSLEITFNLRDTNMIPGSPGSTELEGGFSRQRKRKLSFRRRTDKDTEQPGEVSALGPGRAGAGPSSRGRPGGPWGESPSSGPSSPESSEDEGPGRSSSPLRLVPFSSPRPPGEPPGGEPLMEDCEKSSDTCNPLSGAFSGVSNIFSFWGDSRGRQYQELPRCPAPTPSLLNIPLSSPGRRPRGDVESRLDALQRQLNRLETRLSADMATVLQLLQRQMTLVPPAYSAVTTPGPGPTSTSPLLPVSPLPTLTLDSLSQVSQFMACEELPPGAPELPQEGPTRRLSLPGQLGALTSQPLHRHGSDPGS

[30] = system: Human immunodeficiency virus 1; assay: Antiviral activity against […] HIV-1 infected in human MT4 cells assessed as reduction in virus-induced cytopathic effect incubated for 5 days by MTT assay; type: functional, organism-based; settings: Human immunodeficiency virus 1, MT4, 120 h

Cc1c(C(C#N)c2c(F)cccc2F)nc(SC(C)C)[nH]c1=O (stereo not drawn)
Ratio EC50 [1]: 2 | Ratio EC50 [2]: 36 | Activity [3]: Non-Toxic | Activity [4]: Non-Toxic | Vz [5]: 0.47537 L/kg | Activity [6]: Non-Toxic | F [7]: 164% | Activity [8]: Non-Toxic | CL/F [9]: 0.0746 L/h/kg | clearance [10]: 0.128 L/h/kg | Activity [11]: Non-Toxic | pEC50 [12]: 4.16 | AUC(0-t) at 24 h [13]: 8.28 µg·h/mL | C0 at 24 h [14]: 9.31 µg/mL | Tmax [15]: 3.5 h | AUC(0-t) at 24 h [16]: 133 µg·h/mL | pIC50 (Cytochrome P450 1A2): < 4.30 | pEC50 [17]: 7.30 | selectivity ratio [18]: 6560 | pEC50 [19]: 5.47 | AUC(0-inf) [20]: 8.32 µg·h/mL | Activity [21]: Non-Toxic | Ratio EC50 [22]: 163 | MRT last at 24 h [23]: 2.25 h | MRT inf [24]: 6.82 h | pIC50 (Cytochrome P450 3A4): < 4.30 | pEC50 [25]: 5.99 | Cmax [26]: 15.3 µg/mL | Cmax [27]: 7.62 µg/mL | half-life [28]: 4.07 h | Ratio EC50 [29]: 3319 | inhibition at 40 µM (hERG): 29.4% | pEC50 [30]: 7.68
